Data taken from US8247533B2, “Beta helical peptide structures stable in aqueous and non-aqueous media” (The United States of America, as represented by the …, priority 2007, dated 2012).
≈ marks a conversion by molar mass, not a printed value. Peptide text beside a SMILES is read from it.

Columns and labels:
physchem = conditions: aqueous medium
Text: (§1) The water solubility of these peptides/peptidometrics is defined by the correct choice of sidechain functionalities.

[1] = Circular dichroism (CD) thermal denaturation study; assay type: physicochemical
Text: as §1

[2] = Solubility in organic solvents (purification work); assay type: physicochemical
Protocol: However, dissolution of the crude peptide in HFIP at a concentration of about 80 mg mL^−1, followed by twofold dilution with HFA.3H2O, furnished a solution that was suitable for use in RP-HPLC.
The next attempt to repurify fraction a of the RP-HPLC purified material using gravity-driven GPC on Sephadex LH-20. These efforts were complicated by the lack of a suitable pure solvent that would satisfy the following criteria: (1) the solvent must be able to dissolve the partially purified peptide, and (2) the solvent must be sufficiently polar to prevent irreversible adsorption of the peptide to the LH-20 stationary phase. One choice was CHCl3, in which the peptide is soluble to about. 20 mM; CHCl3, however, is a nonpolar solvent. Moreover, CHCl3 is denser than LH-20 and therefore inconvenient for GPC using gravity-driven flow. However, the solvent mixture CHCl3/MeOH (65:35) satisfies both of the criteria stated above; in addition, this mixture is less dense than LH-20. A single pass of fraction a through a 2.5×55 cm column of LH-20 in CHCl3/MeOH gave material that was ≧95% pure as estimated by 1D ^1H NMR (FIG. 9c). Furthermore, even fraction b of the RP-HPLC-purified material, which contained about 30% contaminant (FIG. 9b), could be purified in this manner. […]

Row | Structure (SMILES) | solubility (physchem) | change of beta-hairpin structure (CD) with temperature ([1]; aqueous state, 100 mM phosphate buffered saline buffer, about 5° C. to about 95° C.) | temperature up to which helical structure resists thermal denaturation (CD) ([1]; in methanol and trifluoroethanol) | solubility ([2]; CHCl3, partially purified peptide) | solubility in solvents typically used for RP-HPLC ([2]; crude peptide, MeOH, EtOH, i-PrOH, and CH3CN)
1 | CC(C)C[C@H]1NC(=O)CNC(=O)[C@@H]2CCCN2C(=O)[C@@H](C)NC(=O)[C@H]([C@@H](C)O)NC(=O)[C@@H](CC(C)C)NC(=O)[C@H]([C@@H](C)O)NC(=O)[C@@H](C(C)C)NC(=O)[C@H](CCCCN)NC(=O)[C@@H](CC(C)C)NC(=O)[C@H](CCC(=O)O)NC(=O)[C@@H](C)NC(=O)CNC(=O)[C@@H]2CCCN2C(=O)[C@@H](C(C)C)NC(=O)[C@H]([C@@H](C)O)NC(=O)[C@@H](C)NC(=O)[C@H]([C@@H](C)O)NC(=O)[C@@H](CC(C)C)NC(=O)[C@H](CCCNC(=N)N)NC(=O)[C@@H](C(C)C)NC(=O)[C@H](CCC(=O)O)NC1=O [Peptide 1] (HELM PEPTIDE1{[dL].E.[dV].R.[dL].T.[dA].T.[dV].P.G.[dA].E.[dL].K.[dV].T.[dL].T.[dA].P.G}$PEPTIDE1,PEPTIDE1,1:R1-22:R2$$$V2.0) | > 10 mM | does not change | up to 85 °C |  | 
2 | CC(C)[C@@H]1NC(=O)CNC(=O)[C@H]2CCCN2C(=O)[C@H](C(C)C)NC(=O)[C@@H](C(C)C)NC(=O)[C@H](C(C)C)NC(=O)[C@@H](C(C)C)NC(=O)[C@H](C(C)C)NC(=O)[C@@H](C(C)C)NC(=O)[C@H](C(C)C)NC(=O)[C@@H](C(C)C)NC(=O)[C@H](C(C)C)NC(=O)CNC(=O)[C@H]2CCCN2C(=O)[C@H](C(C)C)NC(=O)[C@@H](C(C)C)NC(=O)[C@H](C(C)C)NC(=O)[C@@H](C(C)C)NC(=O)[C@H](C(C)C)NC(=O)[C@@H](C(C)C)NC(=O)[C@H](C(C)C)NC(=O)[C@@H](C(C)C)NC1=O [Peptide 3, cyclo{[(L-Val-D-Val)4-(L-Val-D-Pro-Gly)]2-}] (HELM PEPTIDE1{V.[dP].G.V.[dV].V.[dV].V.[dV].V.[dV].V.[dP].G.V.[dV].V.[dV].V.[dV].V.[dV]}$PEPTIDE1,PEPTIDE1,1:R1-22:R2$$$V2.0) |  |  |  | ~20 mM (≈ 41.9 mg/mL) | insoluble
